Experimental data: patent publication US3937821A, “Plasma substitute including artificial starch and method for the preparation thereof” (Kyorin Seiyaku Kabushiki Kaisha, priority 1971, dated 1976)

Assays:
Mice [1] = conditions: mouse, in vivo
Method: (§1) Sera from all bleedings were analysed by passive cutaneous anaphylaxis reaction. Arthus reaction in rabbits and active anaphylaxis reaction in guinea pigs were performed too.

antibodies in human sera [2] = system: antibodies in human sera
Mice [3] = conditions: mouse, in vivo; cited from earlier work
guinea pigs = conditions: guinea pig, in vivo
Method: as §1

antibodies in human sera [4] = conditions: cited from earlier work
humans = conditions: in vivo, iv
Rats [5] = conditions: rat, in vivo; cited from earlier work
Rabbits = conditions: rabbit, in vivo
Method: as §1

Mice [6] = conditions: mouse, in vivo; remark: listed apart in the source
Rats [7] = conditions: rat, in vivo
patients = conditions: human, in vivo; cited from earlier work

- circulating antibodies (Mice [1]): circulating antibodies were detected
- sera positive in passive cutaneous anaphylaxis reaction (antibodies in human sera [2]): Three sera gave positive a reaction
- antibodies detectable / immunogenicity (guinea pigs): not immunogenic
- antibody production (humans): do not lead to antibody production
- antibodies detectable / immunogenicity (Rabbits): not immunogenic
Substance: Dextran
- anaphylactoid reaction (Mice [3]): edema and erythema of paws, ears and snout
- human sera contain reacting antibodies; anaphylactic reaction after infusion (antibodies in human sera [4]): human sera contain Dextran reacting antibodies of varying types
- anaphylactoid reaction (Rats [5]): edema and erythema of paws, ears and snout
- anaphylactoid purpura (Mice [6]): anaphylactoid purpura appeared in the paws, ears and tail
- anaphylactoid inflammation (Mice [6]; iv): acute, serous anaphylactoid inflammation in the ears, snout and tail
- anaphylactoid purpura (Rats [7]): anaphylactoid purpura appeared in the paws, ears and tail
- anaphylactoid inflammation (Rats [7]; iv): acute, serous anaphylactoid inflammation in the ears, snout and tail
- renal lesion or anaphylactic shock (patients): 6 - 8%
